Reference: US8574837B2, “System for screening agonists/antagonists of cellular signaling pathways” (President and Fellows of Harvard College, priority 2008, dated 2013)

Legend:
Smo [1] = molecular target: T1, Smo (Homo sapiens, UniProt Q99835); assay: Smo translocation assay (A1::Smo::GFP / Smo colocalization with Arl13b at the primary cilium); type: cell-based; conditions: for Smo translocation to the primary cilium, agent applied alone: NIH/3T3 cells, ShhN 25 nM, SAG 200 nM, purmorphamine, 20-OHC, cyclopamine, GANT61 10 μM, SANT-1, SANT-2 1 μM, 24 hr; for ShhN-dependent translocation of Smo to the primary cilium, antagonist plus ShhN: ShhN 25 nM plus SANT-1 or SANT-2 1 μM or GANT61 10 μM, FIG. 6
T1 construct: expressed in transfected cells; host or cells: NIH/3T3 (mouse fibroblasts), retroviral infection with pBabe-A1::Smo::GFP, clonal lines
T1 sequence (Q99835 28-787): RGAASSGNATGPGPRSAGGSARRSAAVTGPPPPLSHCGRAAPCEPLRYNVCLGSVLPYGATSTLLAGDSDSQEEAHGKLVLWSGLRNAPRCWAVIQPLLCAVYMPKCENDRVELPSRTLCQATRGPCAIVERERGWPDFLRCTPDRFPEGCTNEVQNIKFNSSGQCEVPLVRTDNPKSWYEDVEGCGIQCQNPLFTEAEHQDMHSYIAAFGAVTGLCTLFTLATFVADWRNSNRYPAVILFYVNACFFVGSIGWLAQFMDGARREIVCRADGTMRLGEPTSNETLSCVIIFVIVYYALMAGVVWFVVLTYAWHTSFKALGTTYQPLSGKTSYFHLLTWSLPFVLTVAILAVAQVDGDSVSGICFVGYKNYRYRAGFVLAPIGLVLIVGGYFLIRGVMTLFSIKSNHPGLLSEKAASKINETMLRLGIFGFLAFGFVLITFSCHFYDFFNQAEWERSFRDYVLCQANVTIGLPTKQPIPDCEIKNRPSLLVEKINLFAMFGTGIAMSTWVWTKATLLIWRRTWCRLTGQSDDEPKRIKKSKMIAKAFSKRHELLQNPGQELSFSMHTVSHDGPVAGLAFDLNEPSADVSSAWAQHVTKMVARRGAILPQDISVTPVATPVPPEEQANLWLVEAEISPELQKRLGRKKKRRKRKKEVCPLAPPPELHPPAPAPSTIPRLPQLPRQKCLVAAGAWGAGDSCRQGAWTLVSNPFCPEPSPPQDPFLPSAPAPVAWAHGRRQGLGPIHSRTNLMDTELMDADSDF
Method: All 3T3 cell lines were plated at a density of 1×10^4 cells per well in fibronectin coated Lab-Tek™ Chamber Slides (Nunc, 178599). The cells were grown to confluence, then switched to […] containing 0.5% BCS with indicated treatments for 24 hr or as stated elsewhere herein. Immunostaining was performed after fixation in 4% Paraformaldehyde (PFA) according to standard protocols. AcpS labeling reactions were performed as described previously (Zhou et al., 2007). Fluorescent images were collected after fixing samples using a Zeiss LSM510 META on an inverted microscope, with a 63× (1.4 NA) oil-immersion objective lens utilizing four laser lines (405 nm, 488 nm, 543 nm, 633 nm).
Mouse recombinant ShhN purified protein was purchased from R&D Systems (#464-SH-025). SAG, SANT-2, and GANT61 were purchased from Axxora (#ALX-270-426, #ALX-270-436, #ALX-270-482; Axxora, LLC, San Diego, Calif.). SANT-1 was obtained from Tocris Bioscience (#1974). DMSO was from Sigma Aldrich (D2650). Purmorphamine was from Calbiochem (#540220). […] AcpS, Texas Red-CoA, and Alexa633-CoA were prepared as described previously (Zhou et al., 130 J. Am. Chem. Soc. 9925-30 (2008)).

Hh signaling = assay: Gli-luciferase assay (Ptch1-promoter driven luciferase reporter); type: cell-based, mouse; conditions: NIH/3T3 cells, RNAi knock down of suFU; FIG. 3
Method: Cells were plated at a density of 5×10^4 per well in 24-well plates 18 hr prior to transfection. DNA transfection was performed using Lipofectamine™ 2000 transfection reagent (Invitrogen, #11668); the DNA introduced in each well included 100 ng CMV driven Renilla luciferase construct, 300 ng Ptch1 promoter-driven firefly luciferase construct, and 400 ng of each shRNA construct or a PBS plasmid as a control. Cells were grown for two days; then the medium was changed to DMEM containing 0.5% BCS and proteins/compounds indicated in the text. Cells were cultured for an additional 48 hr, tryspinized, lysed and assayed using a Promega Dual Luciferase Reporter Essay System Kit (E1910). Renilla luciferase signal was used to normalize the firefly luciferase signal. The RNAi efficiency was measured as previous described (Varjosalo et al., 2006). In all luciferase assays, every condition was repeated in quadruplicate wells and experiments were repeated at least three times.
Mouse recombinant ShhN purified protein was purchased from R&D Systems (#464-SH-025). SAG, SANT-2, and GANT61 were purchased from Axxora (#ALX-270-426, #ALX-270-436, #ALX-270-482; Axxora, LLC, San Diego, Calif.). SANT-1 was obtained from Tocris Bioscience (#1974). DMSO was from Sigma Aldrich (D2650). Purmorphamine was from Calbiochem (#540220). […]

Gli1 = molecular target: T2, Gli1 (Homo sapiens, UniProt P08151); conditions: cited from earlier work
T2 sequence (P08151 1-1106): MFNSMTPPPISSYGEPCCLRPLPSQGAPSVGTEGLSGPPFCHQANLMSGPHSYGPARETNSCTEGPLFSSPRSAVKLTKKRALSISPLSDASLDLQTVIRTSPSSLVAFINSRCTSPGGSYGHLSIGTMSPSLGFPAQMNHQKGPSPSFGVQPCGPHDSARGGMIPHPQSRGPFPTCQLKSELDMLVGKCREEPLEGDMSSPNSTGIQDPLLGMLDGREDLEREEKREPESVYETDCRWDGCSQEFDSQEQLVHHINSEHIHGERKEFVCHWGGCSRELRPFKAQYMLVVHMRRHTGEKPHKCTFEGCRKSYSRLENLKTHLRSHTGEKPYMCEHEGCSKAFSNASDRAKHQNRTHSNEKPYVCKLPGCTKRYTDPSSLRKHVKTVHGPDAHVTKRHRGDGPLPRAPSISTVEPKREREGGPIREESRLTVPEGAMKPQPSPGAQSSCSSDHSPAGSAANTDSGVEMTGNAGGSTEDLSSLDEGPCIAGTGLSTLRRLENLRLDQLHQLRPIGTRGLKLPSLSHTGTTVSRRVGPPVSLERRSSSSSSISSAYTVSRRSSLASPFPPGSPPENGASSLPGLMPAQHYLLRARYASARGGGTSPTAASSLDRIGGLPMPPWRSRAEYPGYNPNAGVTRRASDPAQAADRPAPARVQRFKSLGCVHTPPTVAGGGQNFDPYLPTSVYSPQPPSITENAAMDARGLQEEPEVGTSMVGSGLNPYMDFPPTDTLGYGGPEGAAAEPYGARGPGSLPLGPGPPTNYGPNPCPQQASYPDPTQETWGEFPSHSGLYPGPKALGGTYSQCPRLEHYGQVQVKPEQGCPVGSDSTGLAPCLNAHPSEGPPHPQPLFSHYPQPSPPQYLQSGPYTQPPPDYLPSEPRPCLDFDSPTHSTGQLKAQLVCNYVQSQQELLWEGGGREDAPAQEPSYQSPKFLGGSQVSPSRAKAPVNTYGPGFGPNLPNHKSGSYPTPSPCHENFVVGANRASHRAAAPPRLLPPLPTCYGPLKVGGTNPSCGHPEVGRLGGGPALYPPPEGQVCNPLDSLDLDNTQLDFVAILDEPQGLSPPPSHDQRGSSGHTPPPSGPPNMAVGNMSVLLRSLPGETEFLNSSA

Smo [2] = molecular target: Smo (Mus musculus, UniProt P56726); conditions: cited from earlier work
Chain of Smo (Mus musculus, UniProt P56726) (P56726 33-793): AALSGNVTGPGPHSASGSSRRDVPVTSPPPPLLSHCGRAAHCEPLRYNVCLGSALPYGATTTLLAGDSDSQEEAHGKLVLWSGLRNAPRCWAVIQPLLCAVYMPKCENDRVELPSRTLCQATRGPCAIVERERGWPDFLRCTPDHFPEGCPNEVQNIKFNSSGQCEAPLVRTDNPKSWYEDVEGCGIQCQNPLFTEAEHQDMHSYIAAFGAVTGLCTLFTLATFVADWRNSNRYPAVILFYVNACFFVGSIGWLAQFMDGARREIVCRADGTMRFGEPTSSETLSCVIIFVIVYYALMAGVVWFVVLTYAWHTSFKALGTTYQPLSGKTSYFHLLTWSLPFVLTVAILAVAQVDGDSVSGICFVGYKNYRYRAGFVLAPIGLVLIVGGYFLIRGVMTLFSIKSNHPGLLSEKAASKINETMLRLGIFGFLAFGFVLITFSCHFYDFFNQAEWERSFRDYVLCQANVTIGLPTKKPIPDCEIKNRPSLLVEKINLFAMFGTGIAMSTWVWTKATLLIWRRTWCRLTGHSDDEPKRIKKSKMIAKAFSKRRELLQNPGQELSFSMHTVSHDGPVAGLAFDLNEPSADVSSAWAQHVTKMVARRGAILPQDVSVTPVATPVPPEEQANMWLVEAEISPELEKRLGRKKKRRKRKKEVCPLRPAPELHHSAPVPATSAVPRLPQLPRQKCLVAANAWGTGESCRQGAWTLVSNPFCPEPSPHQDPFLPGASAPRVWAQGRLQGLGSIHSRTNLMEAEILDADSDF

SmoA1 = conditions: cited from earlier work
[3] = system: UV-irradiated Ptch1^+/− mice; conditions: prolonged systemic treatment; cited from earlier work

Row | SMILES | Smo translocation to the primary cilium, agent applied alone (Smo [1]) | ShhN-dependent translocation of Smo to the primary cilium, antagonist plus ShhN (Smo [1]) | also measured
1 | CC(C)CCC[C@](C)(O)[C@H]1CC[C@H]2[C@@H]3CC=C4C[C@@H](O)CC[C@]4(C)[C@H]3CC[C@@]21C [20-OHC, 20α-hydroxycholesterol] | Smo translocated to the primary cilium |  | 
2 | CN(C)c1ccccc1CN1CCCN(Cc2ccccc2N(C)C)C1c1ccncc1 [GANT61] | do not induce obvious localization change of Smo | abrogate the ShhN-dependent translocation of Smo to the primary cilium | Gli activity when the endogenous Gli antagonist suFU was knocked down (Hh signaling): inhibited Gli activity; Gli1 binding to DNA (Gli1): inhibits Gli1 binding to DNA
3 | CNC1CCC(N(Cc2cccc(-c3ccncc3)c2)C(=O)c2sc3ccccc3c2Cl)CC1 (centres unmarked) [SAG] | Smo translocated to the primary cilium |  | 
4 | Cc1nn(-c2ccccc2)c(C)c1/C=N/N1CCN(Cc2ccccc2)CC1 [SANT-1] | do not induce obvious localization change of Smo | abrogate the ShhN-dependent translocation of Smo to the primary cilium | Competition for cyclopamine binding of Smo (Smo [2]): compete for cyclopamine binding of Smo; Inhibition of SmoA1 activity, dose relative to wild-type Smo (SmoA1): at a comparable dose to that required to inhibit wild-type Smo
5 | CCOc1cc(C(=O)Nc2ccc(Cl)c(-c3nc4ccccc4[nH]3)c2)cc(OCC)c1OCC [SANT-2] | do not induce obvious localization change of Smo | abrogate the ShhN-dependent translocation of Smo to the primary cilium | Competition for cyclopamine binding of Smo (Smo [2]): compete for cyclopamine binding of Smo; Inhibition of SmoA1 activity, dose relative to wild-type Smo (SmoA1): at a comparable dose to that required to inhibit wild-type Smo
6 | CC1=C2C[C@H]3[C@@H](CC=C4C[C@@H](O)CC[C@@]43C)[C@@H]2CC[C@]12O[C@@H]1C[C@H](C)CN[C@H]1[C@H]2C [cyclopamine] | drove Smo to the primary cilium |  | Tumor formation [3]: significantly diminish tumor formation
7 | c1ccc2c(Oc3nc(Nc4ccc(N5CCOCC5)cc4)c4ncn(C5CCCCC5)c4n3)cccc2c1 [purmorphamine] | Smo translocated to the primary cilium |  | 
